In general, inhibition refers to the drop in the measured response relative to a control, in per cent. A low value points to a response near the control.

Conditions in all cases: PC-3
Assay [1] addresses Tyrosine-protein kinase Fyn (Homo sapiens) (UniProt P06241). Briefly: Inhibition of FYN in human PC3 cell lysates at 10 uM using desthiobiotin-tagged ATP probe AX9989 followed by trypsinization by LC/MS analysis.
Assay [2] addresses Tyrosine-protein kinase Fer (Homo sapiens) (UniProt P16591). Briefly: Inhibition of FER in human PC3 cell lysates at 10 uM using desthiobiotin-tagged ATP probe AX9989 followed by trypsinization by LC/MS analysis.
The target of assay [3] is T1, Ephrin type-B receptor 4 (Homo sapiens) (UniProt P54760).
T1 sequence (whole entry): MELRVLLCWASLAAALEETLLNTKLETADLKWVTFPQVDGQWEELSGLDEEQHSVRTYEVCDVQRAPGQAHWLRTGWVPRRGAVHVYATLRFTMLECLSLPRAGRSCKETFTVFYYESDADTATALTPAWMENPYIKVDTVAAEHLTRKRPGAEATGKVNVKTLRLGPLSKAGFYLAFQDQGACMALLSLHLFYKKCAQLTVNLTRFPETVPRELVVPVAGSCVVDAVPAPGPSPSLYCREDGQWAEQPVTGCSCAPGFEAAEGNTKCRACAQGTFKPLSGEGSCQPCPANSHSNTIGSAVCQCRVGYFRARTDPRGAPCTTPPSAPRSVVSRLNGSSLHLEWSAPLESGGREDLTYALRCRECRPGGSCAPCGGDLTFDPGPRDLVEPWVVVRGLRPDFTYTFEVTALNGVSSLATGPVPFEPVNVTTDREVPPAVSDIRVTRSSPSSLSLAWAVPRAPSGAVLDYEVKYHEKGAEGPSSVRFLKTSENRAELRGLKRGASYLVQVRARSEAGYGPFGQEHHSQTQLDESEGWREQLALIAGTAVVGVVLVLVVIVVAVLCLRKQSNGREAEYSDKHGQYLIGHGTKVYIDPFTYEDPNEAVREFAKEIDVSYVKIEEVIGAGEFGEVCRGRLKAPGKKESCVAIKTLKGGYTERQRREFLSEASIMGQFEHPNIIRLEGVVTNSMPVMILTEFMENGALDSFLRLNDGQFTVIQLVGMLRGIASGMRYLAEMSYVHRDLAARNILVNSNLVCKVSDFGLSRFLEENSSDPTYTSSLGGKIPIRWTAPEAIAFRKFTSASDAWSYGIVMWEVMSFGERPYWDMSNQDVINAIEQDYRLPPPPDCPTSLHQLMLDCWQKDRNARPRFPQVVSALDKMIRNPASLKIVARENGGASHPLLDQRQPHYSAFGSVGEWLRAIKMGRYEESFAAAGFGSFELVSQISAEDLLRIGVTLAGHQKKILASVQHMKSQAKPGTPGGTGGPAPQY
Description: Inhibition of EphB4 in human PC3 cell lysates at 10 uM using desthiobiotin-tagged ATP probe AX9989 followed by trypsinization by LC/MS analysis.

Assay [4] deals with DNA-dependent protein kinase catalytic subunit (Homo sapiens) (UniProt P78527). Description: Inhibition of DNAPK in human PC3 cell lysates at 10 uM using desthiobiotin-tagged ATP probe AX9989 followed by trypsinization by LC/MS analysis.
Assay [5] deals with Phosphatidylinositol 4,5-bisphosphate 3-kinase catalytic subunit beta isoform (Homo sapiens) (UniProt P42338). Description: Inhibition of PIK3CB in human PC3 cell lysates at 10 uM using desthiobiotin-tagged ATP probe AX9989 followed by trypsinization by LC/MS analysis.
The target in assay [6] is CaM kinase II (Homo sapiens) (UniProt Q13557+Q13555+Q13554+Q9UQM7). Description: Inhibition of CaMK2alpha/CaMK2beta/CaMK2delta/CaMK2gamma in human PC3 cell lysates at 10 uM using desthiobiotin-tagged ATP probe AX9989 followed by trypsinization by LC/MS analysis. It is filed as protein assay.
Assay [7] has as its target AMPK alpha1/alpha2 (Homo sapiens) (UniProt P54646+Q13131). Briefly: Inhibition of AMPKalpha1/AMPKalpha2 in human PC3 cell lysates at 10 uM using desthiobiotin-tagged ATP probe AX9989 followed by trypsinization by LC/MS analysis. Format: protein-complex assay.
Assay [8] addresses T2, Serine/threonine-protein kinase D2 (Homo sapiens) (UniProt Q9BZL6).
T2 sequence (whole entry): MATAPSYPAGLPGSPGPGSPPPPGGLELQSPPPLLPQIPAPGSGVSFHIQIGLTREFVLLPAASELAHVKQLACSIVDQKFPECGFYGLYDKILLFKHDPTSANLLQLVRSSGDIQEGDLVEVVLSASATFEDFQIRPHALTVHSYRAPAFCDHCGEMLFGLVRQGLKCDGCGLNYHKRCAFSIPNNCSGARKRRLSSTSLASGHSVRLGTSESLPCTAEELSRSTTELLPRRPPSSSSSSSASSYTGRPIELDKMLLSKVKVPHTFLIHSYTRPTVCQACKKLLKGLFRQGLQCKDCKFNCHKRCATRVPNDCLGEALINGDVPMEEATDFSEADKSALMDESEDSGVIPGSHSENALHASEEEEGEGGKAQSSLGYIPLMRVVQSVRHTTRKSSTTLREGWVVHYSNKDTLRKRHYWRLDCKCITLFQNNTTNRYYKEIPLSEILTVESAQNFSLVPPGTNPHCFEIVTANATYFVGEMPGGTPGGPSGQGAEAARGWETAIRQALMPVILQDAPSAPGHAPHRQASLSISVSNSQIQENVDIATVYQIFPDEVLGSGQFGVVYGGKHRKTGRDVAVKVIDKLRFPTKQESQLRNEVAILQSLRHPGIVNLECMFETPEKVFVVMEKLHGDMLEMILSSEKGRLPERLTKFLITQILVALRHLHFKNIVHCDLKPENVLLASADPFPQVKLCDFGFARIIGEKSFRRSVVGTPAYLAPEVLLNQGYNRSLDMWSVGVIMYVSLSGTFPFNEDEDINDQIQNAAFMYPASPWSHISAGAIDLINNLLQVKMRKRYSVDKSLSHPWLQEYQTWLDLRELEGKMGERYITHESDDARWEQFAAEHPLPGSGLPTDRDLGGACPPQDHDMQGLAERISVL
Briefly: Inhibition of PKD2 in human PC3 cell lysates at 10 uM using desthiobiotin-tagged ATP probe AX9989 followed by trypsinization by LC/MS analysis.

Assay [9] is described as follows: Inhibition of PITSLRE in human PC3 cell lysates at 10 uM using desthiobiotin-tagged ATP probe AX9989 followed by trypsinization by LC/MS analysis. It is filed as cell-free.
Assay [10] deals with Serine/threonine-protein kinase WNK1 (Homo sapiens) (UniProt Q9H4A3). Briefly: Inhibition of Wnk1 in human PC3 cell lysates at 10 uM using desthiobiotin-tagged ATP probe AX9989 followed by trypsinization by LC/MS analysis.
Sequence of Serine/threonine-protein kinase WNK1 (Homo sapiens) (Q9H4A3 whole entry, looked up): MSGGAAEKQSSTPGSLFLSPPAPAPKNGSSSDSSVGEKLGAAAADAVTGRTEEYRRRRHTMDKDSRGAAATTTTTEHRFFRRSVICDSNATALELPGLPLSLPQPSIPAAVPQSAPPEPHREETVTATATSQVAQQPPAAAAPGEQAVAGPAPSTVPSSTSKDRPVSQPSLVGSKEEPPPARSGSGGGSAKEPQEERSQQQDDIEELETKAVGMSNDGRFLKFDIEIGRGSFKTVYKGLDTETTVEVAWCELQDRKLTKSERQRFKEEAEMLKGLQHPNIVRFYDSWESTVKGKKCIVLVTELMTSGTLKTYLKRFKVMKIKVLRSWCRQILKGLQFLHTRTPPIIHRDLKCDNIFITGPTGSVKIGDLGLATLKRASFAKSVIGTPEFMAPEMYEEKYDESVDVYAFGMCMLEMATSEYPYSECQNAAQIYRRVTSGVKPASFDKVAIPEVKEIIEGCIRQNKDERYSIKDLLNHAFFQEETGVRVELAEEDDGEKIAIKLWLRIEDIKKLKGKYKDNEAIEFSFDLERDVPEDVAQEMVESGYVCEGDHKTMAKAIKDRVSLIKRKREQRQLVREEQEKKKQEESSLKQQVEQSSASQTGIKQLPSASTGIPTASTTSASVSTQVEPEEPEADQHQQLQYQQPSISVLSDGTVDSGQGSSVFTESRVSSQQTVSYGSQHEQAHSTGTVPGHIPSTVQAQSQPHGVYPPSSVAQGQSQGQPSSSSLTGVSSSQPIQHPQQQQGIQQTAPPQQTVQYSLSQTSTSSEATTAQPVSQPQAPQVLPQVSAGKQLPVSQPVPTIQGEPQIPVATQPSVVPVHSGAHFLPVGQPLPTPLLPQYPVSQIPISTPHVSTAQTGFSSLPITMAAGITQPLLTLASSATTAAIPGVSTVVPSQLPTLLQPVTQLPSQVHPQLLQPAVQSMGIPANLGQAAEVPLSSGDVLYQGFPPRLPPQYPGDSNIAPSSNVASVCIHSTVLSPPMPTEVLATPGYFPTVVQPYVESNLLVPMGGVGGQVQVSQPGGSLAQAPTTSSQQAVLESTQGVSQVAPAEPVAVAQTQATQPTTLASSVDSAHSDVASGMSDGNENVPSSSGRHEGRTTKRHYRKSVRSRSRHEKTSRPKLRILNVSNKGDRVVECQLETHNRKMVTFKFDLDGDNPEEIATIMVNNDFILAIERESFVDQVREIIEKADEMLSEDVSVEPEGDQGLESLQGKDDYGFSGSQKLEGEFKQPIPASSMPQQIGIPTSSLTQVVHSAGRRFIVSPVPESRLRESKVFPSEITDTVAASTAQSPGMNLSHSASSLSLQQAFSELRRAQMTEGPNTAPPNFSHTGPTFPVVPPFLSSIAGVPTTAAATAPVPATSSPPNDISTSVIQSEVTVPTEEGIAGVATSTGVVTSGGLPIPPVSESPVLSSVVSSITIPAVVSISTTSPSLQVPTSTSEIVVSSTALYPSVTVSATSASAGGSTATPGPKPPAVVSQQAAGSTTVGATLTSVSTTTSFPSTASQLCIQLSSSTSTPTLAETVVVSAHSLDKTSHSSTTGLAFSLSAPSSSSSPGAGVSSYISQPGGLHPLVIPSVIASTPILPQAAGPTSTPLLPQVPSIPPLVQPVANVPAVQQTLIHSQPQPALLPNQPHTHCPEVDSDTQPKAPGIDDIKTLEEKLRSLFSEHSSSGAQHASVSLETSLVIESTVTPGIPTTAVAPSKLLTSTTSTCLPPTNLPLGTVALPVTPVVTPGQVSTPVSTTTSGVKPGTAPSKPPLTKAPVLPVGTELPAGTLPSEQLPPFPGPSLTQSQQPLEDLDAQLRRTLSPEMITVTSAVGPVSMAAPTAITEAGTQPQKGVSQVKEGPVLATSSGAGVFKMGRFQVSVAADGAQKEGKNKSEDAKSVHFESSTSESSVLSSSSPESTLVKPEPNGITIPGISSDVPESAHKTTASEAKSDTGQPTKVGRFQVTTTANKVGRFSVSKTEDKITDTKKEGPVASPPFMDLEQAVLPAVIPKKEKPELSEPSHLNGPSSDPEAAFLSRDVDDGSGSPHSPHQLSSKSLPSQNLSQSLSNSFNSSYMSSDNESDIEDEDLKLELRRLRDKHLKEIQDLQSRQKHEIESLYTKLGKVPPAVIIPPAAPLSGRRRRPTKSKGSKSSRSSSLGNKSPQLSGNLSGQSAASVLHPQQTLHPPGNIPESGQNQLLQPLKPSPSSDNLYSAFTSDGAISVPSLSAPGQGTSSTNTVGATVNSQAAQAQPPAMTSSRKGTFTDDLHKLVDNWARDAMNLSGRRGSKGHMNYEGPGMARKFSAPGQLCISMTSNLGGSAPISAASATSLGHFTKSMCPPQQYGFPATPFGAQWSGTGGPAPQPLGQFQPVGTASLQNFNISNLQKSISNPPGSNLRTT
For assay [11], the target named is Ribosomal protein S6 kinase beta-1 (Homo sapiens) (UniProt P23443). Description: Inhibition of p70S6K in human PC3 cell lysates at 10 uM using desthiobiotin-tagged ATP probe AX9989 followed by trypsinization by LC/MS analysis.
Sequence of Ribosomal protein S6 kinase beta-1 (Homo sapiens) (P23443 whole entry, looked up): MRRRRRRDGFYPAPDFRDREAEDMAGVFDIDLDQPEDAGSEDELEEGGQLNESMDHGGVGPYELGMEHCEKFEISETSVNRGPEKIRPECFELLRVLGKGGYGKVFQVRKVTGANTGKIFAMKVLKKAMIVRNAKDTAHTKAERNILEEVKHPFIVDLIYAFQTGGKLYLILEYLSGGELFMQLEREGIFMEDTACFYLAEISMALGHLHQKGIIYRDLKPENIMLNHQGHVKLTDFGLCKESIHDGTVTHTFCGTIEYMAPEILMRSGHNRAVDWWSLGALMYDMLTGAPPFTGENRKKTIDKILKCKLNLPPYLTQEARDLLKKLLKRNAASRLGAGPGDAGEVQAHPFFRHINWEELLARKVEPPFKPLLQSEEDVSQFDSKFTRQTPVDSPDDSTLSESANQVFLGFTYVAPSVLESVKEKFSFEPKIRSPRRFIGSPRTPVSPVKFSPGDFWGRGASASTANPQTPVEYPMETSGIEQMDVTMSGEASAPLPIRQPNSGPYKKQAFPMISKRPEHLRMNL
The target in assay [12] is Cyclin-dependent kinase 9 (Homo sapiens) (UniProt P50750). Description: Inhibition of CDK9 in human PC3 cell lysates at 10 uM using desthiobiotin-tagged ATP probe AX9989 followed by trypsinization by LC/MS analysis.
Sequence of Cyclin-dependent kinase 9 (Homo sapiens) (P50750 whole entry): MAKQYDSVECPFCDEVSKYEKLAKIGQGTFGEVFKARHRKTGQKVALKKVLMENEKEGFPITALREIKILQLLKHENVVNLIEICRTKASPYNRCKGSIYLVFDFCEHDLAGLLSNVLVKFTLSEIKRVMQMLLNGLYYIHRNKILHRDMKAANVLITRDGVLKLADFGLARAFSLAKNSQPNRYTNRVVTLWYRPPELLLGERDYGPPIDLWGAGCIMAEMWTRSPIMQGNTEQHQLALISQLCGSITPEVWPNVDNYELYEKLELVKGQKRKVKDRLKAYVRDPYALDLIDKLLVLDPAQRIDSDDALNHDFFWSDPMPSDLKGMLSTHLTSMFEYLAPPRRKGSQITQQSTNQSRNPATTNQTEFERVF

Sequence of AMPK alpha1/alpha2 (Homo sapiens) (P54646 whole entry, looked up): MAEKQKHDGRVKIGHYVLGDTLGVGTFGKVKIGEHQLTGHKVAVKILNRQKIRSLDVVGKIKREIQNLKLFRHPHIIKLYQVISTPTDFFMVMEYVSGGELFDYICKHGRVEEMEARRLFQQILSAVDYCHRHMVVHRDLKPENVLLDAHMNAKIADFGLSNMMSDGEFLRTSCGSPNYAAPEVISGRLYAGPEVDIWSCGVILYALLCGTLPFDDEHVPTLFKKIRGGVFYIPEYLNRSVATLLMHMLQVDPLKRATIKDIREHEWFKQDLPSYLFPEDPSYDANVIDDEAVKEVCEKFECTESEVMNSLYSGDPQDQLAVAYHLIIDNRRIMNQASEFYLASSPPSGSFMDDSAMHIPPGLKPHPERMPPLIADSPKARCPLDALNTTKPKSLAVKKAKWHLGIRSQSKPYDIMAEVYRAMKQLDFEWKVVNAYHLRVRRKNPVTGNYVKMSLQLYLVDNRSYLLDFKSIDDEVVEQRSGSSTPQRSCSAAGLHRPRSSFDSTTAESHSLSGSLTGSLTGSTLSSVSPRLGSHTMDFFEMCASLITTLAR
Sequence of AMPK alpha1/alpha2 (Homo sapiens) (Q13131 whole entry, looked up): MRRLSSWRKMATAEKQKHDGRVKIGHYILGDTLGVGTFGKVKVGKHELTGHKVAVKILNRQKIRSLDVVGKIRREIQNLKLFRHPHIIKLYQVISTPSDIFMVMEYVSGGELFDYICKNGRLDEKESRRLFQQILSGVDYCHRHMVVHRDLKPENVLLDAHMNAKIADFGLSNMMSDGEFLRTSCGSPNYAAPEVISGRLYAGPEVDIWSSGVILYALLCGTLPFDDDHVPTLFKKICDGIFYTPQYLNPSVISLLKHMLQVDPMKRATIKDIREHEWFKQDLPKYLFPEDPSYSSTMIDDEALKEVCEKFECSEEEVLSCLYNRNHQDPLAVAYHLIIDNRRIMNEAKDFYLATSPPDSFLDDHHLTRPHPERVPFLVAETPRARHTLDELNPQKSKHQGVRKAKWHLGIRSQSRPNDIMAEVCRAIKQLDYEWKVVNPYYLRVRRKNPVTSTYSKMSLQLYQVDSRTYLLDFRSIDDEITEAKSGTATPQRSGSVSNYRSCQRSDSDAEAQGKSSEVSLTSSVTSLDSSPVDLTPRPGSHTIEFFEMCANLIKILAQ
Sequence of Tyrosine-protein kinase Fyn (Homo sapiens) (P06241 2-537 limits assumed): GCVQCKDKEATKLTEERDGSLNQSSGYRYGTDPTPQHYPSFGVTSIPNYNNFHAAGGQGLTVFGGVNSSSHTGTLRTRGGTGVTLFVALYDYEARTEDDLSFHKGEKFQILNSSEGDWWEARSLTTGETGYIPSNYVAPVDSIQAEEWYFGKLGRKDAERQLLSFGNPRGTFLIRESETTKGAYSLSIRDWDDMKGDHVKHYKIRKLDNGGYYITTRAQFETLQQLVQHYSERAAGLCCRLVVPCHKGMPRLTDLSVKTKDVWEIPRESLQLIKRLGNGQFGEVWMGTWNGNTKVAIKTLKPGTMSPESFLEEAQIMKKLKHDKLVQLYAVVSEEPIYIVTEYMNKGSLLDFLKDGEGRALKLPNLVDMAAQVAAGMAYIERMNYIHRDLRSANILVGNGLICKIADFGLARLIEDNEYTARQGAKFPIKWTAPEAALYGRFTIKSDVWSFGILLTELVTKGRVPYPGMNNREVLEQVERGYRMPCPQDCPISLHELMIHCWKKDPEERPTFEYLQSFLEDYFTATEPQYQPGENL

On to `O=C(NC1(c2ccc(F)cc2)CC1)c1ccc2nc(N[C@H]3CC[C@H](O)CC3)c3nccn3c2c1`, for which the inhibition in assay [1], in assay [2], in [3], in [4], in assay [5] and in [6] was less than 35% in each case. For the same compound, the inhibition in [7], in assay [8], in assay [9], in assay [10], in [11] and in assay [12] was less than 35% each time.
Turning to `O=C(NC1(c2ccccc2)CCC1)c1ccc2nc(N[C@H]3CC[C@H](O)CC3)c3nccn3c2c1`, the inhibition in assay [1], in assay [2], in assay [3], in assay [4], in assay [5] and in assay [6] was less than 35% in each case. The inhibition in assay [7] is less than 35%; in [8] it was less than 35%; in [9] it was less than 35%; in [10] it was less than 35%; in assay [11], less than 35%; in assay [12], 49.8%.
As for `O=C(O)c1ccc2nc(N[C@H]3CC[C@H](O)CC3)c3nccn3c2c1`, the inhibition in assay [1] was less than 35%; in assay [2] it was less than 35%; in assay [3] it was less than 35%; in [4], less than 35%; in assay [5], 37.1%; in [6], less than 35%. In addition, the inhibition was less than 35% in assay [7]; less than 35% in [8]; 99.3% in assay [9]; less than 35% in assay [10]; less than 35% in assay [11]; 97.9% in assay [12].

Source of the values: ChEMBL document CHEMBL2417377, “Hit-to-lead optimization and kinase selectivity of imidazo[1,2-a]quinoxalin-4-amine derived JNK1 inhibitors” (Bioorg Med Chem Lett, 2013).
